# Results from patent US20250255841A1, “METHODS FOR TREATING CYTOKINE STORM ASSOCIATED WITH ACINETOBACTER BAUMANNII INFECTIONS” (City University of Hong Kong, priority 2024, published 2025).
# Tests used:
# ATCC17978-infected mice = assay: Mouse sepsis infection model with immunosuppressive drug treatment (survival, body weight, spleen weight); format: in vivo, C57BL/6 mice; conditions: for survival rate of ATCC17978-infected mice: intraperitoneal drug
# Protocol: (§1) The mouse infection model was employed to detect the immune response induced by Ab in vivo. Mice of the same sex were randomly divided into several groups (5 animals per group) and then infected by 7.5×10^7 CFU of Ab test strain by intraperitoneal administration. The body weight of all mice was recorded before infection and at 12 hours post-infection. Survival of the test animals was determined by recording the mortality rate during the 120-hour experiment. At 12 hpi, the mice were sacrificed, and the organs were collected and homogenized for bacterial load measurement and analysis by flow cytometry, RNAseq, scRNAseq and qRT-PCR assay. The serum of the mice was collected for ELISA detection. Animal experiments were conducted at least twice to assess the consistency of the data.
# To test the effect of NSAIDs treatment, the mice were administered intraperitoneal injections of 50 mg/kg NPXS and 100 mg/kg ASA 1 h before ATCC 17978 infection; a group of mice that served as control received equivalent volumes of PBS. The survival rate, health status, and weight of the test animals were recorded during the next 120 hours.
# RAW264.7 cells = assay: Inhibitor treatment in RAW264.7 infected with ATCC 17978, flow cytometry of CD86/CD206; format: cell-based, mouse; conditions: RAW264.7 pretreated 1 h, Ab MOI=5 for 6 h; compared to cells not treated with the inhibitors
# Protocol: RAW264.7 cells were pre-treated for 1 h with the culture medium, C29 (100 μM)^22, TJ-M2010-5 (20 μM)^23 and JSH-23 (30 μM)^24 (MCE, NJ, USA) respectively, and then stimulated with Ab (MOI=5) for 6 h in the presence of the culture medium, C29, TJ-M2010-5 or JSH-23. Cell supernatants were collected for subsequent cytokine measurement. RAW264.7 cells were incubated with fluorescently labeled antibodies against mouse F4/80, CD206, and CD86 for flow cytometric analysis, following washes three times with PBS and resuspension in PBS containing 2.5% FBS.
# [1] = test system: CD11b+F4/80+ macrophages in the lungs of Ab-infected mice
# Protocol: as §1
# [2] = test system: serum cytokine production (TNF-α, IL-6 and IL-1b); conditions: Ab-infected mice, ELISA
# Protocol: as §1
# Blood was collected from the test mice by orbital bleeding and clotted at RT for 1 h. Blood was subsequently subjected to centrifugation at 10,000 g for 25 min at 4° C. Serum was divided into tubes and stored immediately at −80° C. until cytokine analysis.
# The enzyme-linked immunosorbent assay (ELISA) was used to perform cytokine analysis in mouse serum and cell supernatants. Mouse serum was extracted as described above. Pre-treated macrophage cell supernatants were harvested and centrifuged to remove impurities. The levels of IL1β, IL6, and TNF-α were measured by using the IL-1 beta, IL-6 and TNF alpha Mouse Uncoated ELISA Kit (Thermo Fisher Scientific) according to the manufacturer's protocols, respectively.
# [3] = test system: pro-inflammatory, COX and TLR2/Myd88/NF-κB signaling pathway-related genes
# Protocol: as §1
# Total RNA was extracted from the homogenized lung samples or RAW264.7 cells (ATCC, CA, USA) upon Ab infection, utilizing the TRIzol™ method (Thermo Fisher Scientific, MA, USA). Turbo DNA-free™ Kit (Invitrogen, CA, USA) was employed for removal of DNA contaminants. 1 μg purified mRNA was reverse transcribed into cDNA using SuperScript™ III First-Strand Synthesis SuperMix Kit (Invitrogen), with a 1:10 dilution for subsequent qRT-PCR analysis. The qRT-PCR was then performed on an ABI QuantStudio 7 Flex Real-Time PCR System (Applied Biosystems, CA, USA) by the PowerUP SYBR Green master mix (Applied Biosystems). The target gene transcription levels were quantified by the comparative Ct method and normalized to the expression level of glyceraldehyde-3-phosphate dehydrogenase (GADPH).
# Total RNA extracted from lung samples was sequenced by Novogene Technology (Hong Kong SAR, China). Bioanalyzer 2100 system was used to measure RNA integrity (Agilent Technologies, CA, USA); the NEBNextUltra RNA Library Prep Kit (NEB, CA, USA) was employed to construct the cDNA libraries for Illumina sequencing. The index-coded samples clustering was carried out on a cBot Cluster Generation System by the TruSeq PE Cluster Kit v3-cBot-HS (Illumia, CA, Illumia). The libraries were sequenced on the Illumina Novaseq platform with paired-end 150 bp reads. HISAT2 was used for sequencing reads alignment. Fragments per gene were counted based on exon regions with FeatureCounts v.1.6.243. Differential mRNA level analysis was carried on by the DESeq2 R package. Unigenes with P.adjust<0.05 and |Log2Fold Change|>1 could be described as differentially expressed genes. Gene Enrichment Analysis was conducted for gene ontology enrichment analysis.
# [4] = RNA-seq, ATCC 17978-infected mice after NPXS treatment, stated as suppressed
compound,measurement,setting,value
"C[C@@H]1C[C@H]2[C@@H]3CCC4=CC(=O)C=C[C@]4(C)[C@@]3(F)[C@@H](O)C[C@]2(C)[C@@]1(O)C(=O)CO [DXMS, dexamethasone]",survival rate of ATCC17978-infected mice,ATCC17978-infected mice; at 48 h,40%
"CC(=O)Oc1ccccc1C(=O)O [ASA, acetylsalicylic acid]",survival rate of ATCC17978-infected mice,ATCC17978-infected mice; at 24 h,60%
same,anti-inflammatory potency recorded during Ab infection,ATCC17978-infected mice; comparison with naproxen,inferior to that of naproxen
"Cn1cnc([N+](=O)[O-])c1Sc1ncnc2nc[nH]c12 [AzA, azathioprine]",survival rate of ATCC17978-infected mice,ATCC17978-infected mice; at 36 h,40%
Cc1ccc(NCCCc2ccccc2)c(N)c1 [JSH-23],CD86 MFI levels,RAW264.7 cells,decrease
same,CD206 MFI levels,RAW264.7 cells,no difference
"COc1ccc2cc([C@H](C)C(=O)O)ccc2c1 [NPXS, (+)-(S)-2-(6-methoxynaphthalen-2-yl) propanoic acid]",extent of body weight loss,"ATCC17978-infected mice; 12 hpi, on average, infected untreated 6.7%",3.6%
same,splenomegaly (percentage of spleen weight),"ATCC17978-infected mice; on average, infected untreated 0.48%",0.38%
same,infected mice protected from death,"ATCC17978-infected mice; within 120 h, 50 mg/kg i.p. 1 h before infection",100%
same,CD86 MFI levels (M1 polarization),[1]; F4/80+ macrophages in the lungs of Ab-infected mice,effectively attenuated
same,infiltration of CD11b+F4/80+ macrophages,[1]; lungs of Ab-infected mice,did not result in decrease
same,reduction of serum IL-1b production,[2],more than 50 fold
same,reduction of serum IL-6 production,[2],more than 50 fold
same,reduction of serum TNF-α production,[2],more than 50 fold
same,relative expression of TLR2/Myd88/NF-κB signaling pathway-related genes,[3]; ATCC 17978-infected mice after NPXS treatment,further reduction
same,transcript levels of most pro-inflammatory genes,"[3]; Ab-infected mice, lungs",significantly lower
same,"expression of COX1 gene, Log2FC",[3]; [4],0.4194
same,"expression of COX2 gene, Log2FC",[3]; [4],0.2429
O=C(CCN1CCN(Cc2ccccc2)CC1)Nc1nc(-c2ccccc2)cs1 [TJ-M2010-5],CD86 MFI levels,RAW264.7 cells,decrease
same,CD206 MFI levels,RAW264.7 cells,no difference
